The target in one experiment is JAK1 (Homo sapiens (Human), UniProt P23458). Put plainly: Jak Biochemical HTRF Assay, JAK1. The settings on record: HTRF biochemical assay, GST-tagged catalytic domain; top concentration tested […]; read-out: JAK1 IC50. The source says: (§1) Jak Biochemical HTRF Assay Protocol
(§2) Subsequent reagent additions employed an Agilent Bravo.
In general terms: In TR-FRET formats the signal depends on donor and acceptor labels being close together.

A further experiment concerns the target JAK2 (Homo sapiens (Human), UniProt O60674). Put plainly: Jak Biochemical HTRF Assay, JAK2. To be noted: HTRF biochemical assay, GST-tagged catalytic domain; top concentration tested […].
Source text: as §1, §2

Chain of JAK1 (P23458 875-1153): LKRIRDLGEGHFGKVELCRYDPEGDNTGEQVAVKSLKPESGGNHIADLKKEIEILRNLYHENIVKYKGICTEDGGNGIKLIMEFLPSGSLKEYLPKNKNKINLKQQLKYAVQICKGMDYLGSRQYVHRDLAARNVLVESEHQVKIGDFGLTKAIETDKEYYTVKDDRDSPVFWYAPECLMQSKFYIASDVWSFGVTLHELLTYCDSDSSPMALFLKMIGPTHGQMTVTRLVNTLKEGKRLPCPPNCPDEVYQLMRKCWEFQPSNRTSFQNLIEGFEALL
Chain of JAK2 (O60674 849-1124): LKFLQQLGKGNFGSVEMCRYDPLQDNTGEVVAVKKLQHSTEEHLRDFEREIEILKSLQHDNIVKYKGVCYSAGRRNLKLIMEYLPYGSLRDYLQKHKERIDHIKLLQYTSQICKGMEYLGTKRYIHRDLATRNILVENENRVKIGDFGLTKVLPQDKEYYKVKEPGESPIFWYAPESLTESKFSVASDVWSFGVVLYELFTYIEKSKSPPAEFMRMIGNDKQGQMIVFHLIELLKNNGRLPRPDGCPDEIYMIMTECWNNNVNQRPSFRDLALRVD

`CC(C)(C)OC(=O)N1CCC(CC#N)(n2cc(C(N)=O)c(Nc3ccc(C(=O)N4CCOCC4)cc3)n2)CC1` [Example 9-25, tert-butyl 4-(4-carbamoyl-3-{[4-(morpholin-4-ylcarbonyl)phenyl]amino}-1H-pyrazol-1-yl)-4-(cyanomethyl)piperidine-1-carboxylate]: the IC50 (in general, the point on the concentration scale where inhibition reaches its midpoint) on JAK1 came out at 0.3 nM; at JAK2, 0.7 nM.

Regarding `N#CCC1(n2cc(C(N)=O)c(Nc3ccc(F)cc3)n2)CCC(NCC(F)F)CC1` (stereo not drawn) [Example 40-77, Cis or trans 1-{1-(cyanomethyl)-4-[(2,2-difluoroethyl)amino]cyclohexyl}-3-[(4-fluorophenyl)amino]-1H-pyrazole-4-carboxamide], the IC50 stood at 0.7 nM on JAK1 and 13 nM against JAK2.

On to `Cc1c[nH]c(CN2CCC(CC#N)(n3cc(C(N)=O)c(Nc4ccnc(F)c4)n3)CC2)n1` [Example 22-4, 1-{4-(cyanomethyl)-1-[(4-methyl-1H-imidazol-2-yl)methyl]piperidin-4-yl}-3-[(2-fluoropyridin-4-yl)amino]-1H-pyrazole-4-carboxamide], for which the values for the IC50 on JAK1 and on JAK2 were 74 nM and 1180 nM, respectively.

For `N#CCC1(n2cc(C(N)=O)c(Nc3ccnc(F)c3)n2)CCN(Cc2cc3ccccc3[nH]2)CC1` [Example 22-39, 1-[4-(cyanomethyl)-1-(1H-indol-2-ylmethyl)piperidin-4-yl]-3-[(2-fluoropyridin-4-yl)amino]-1H-pyrazole-4-carboxamide], the IC50 on JAK1 is 0.2 nM; at JAK2, 14 nM.

For the compound `N#CCC1(n2cc(C(N)=O)c(Nc3ccc(S(=O)(=O)C(F)F)cc3)n2)CCC(N2CCC(O)CC2)CC1` (stereo not drawn) [Example 40-43, Cis or trans 1-[1-(cyanomethyl)-4-(4-hydroxypiperidin-1-yl)cyclohexyl]-3-({4-[(difluoromethyl)sulfonyl]phenyl}amino)-1H-pyrazole-4-carboxamide], the IC50 is 0.3 nM on JAK1 and 14 nM against JAK2.

In the case of `N#CCC1(n2cc(C(N)=O)c(Nc3ccnc(F)c3)n2)CCN(Cc2cccnc2F)CC1` [Example 22-23, 1-{4-(cyanomethyl)-1-[(2-fluoropyridin-3-yl)methyl]piperidin-4-yl}-3-[(2-fluoropyridin-4-yl)amino]-1H-pyrazole-4-carboxamide], the values for the IC50 on JAK1 and against JAK2 were 0.1 nM and 6 nM, respectively.

For `N#CCC1(n2cc(C(N)=O)c(Nc3ccnc(F)c3)n2)CCN(Cc2ccc(O)cc2)CC1` [Example 22-60, 1-[4-(cyanomethyl)-1-(4-hydroxybenzyl)piperidin-4-yl]-3-[(2-fluoropyridin-4-yl)amino]-1H-pyrazole-4-carboxamide], the IC50 was found to be 0.1 nM at JAK1 and 6 nM at JAK2.

On to `N#CCC1(n2cc(C(N)=O)c(Nc3ccnc(F)c3)n2)CCN(C(=O)OCC(F)F)CC1` [Example 30-27, 2,2-difluoroethyl 4-(4-carbamoyl-3-(2-fluoropyridin-4-ylamino)-1H-pyrazol-1-yl)-4-(cyanomethyl)piperidine-1-carboxylate], for which the IC50 at JAK1 is 0.07 nM; on JAK2 it was 5 nM.

With `COC(=O)c1cccc(N2CCC(CC#N)(n3cc(C(N)=O)c(Nc4ccc(F)cc4)n3)CC2)n1` [Example 3-35, methyl 6-[4-{4-carbamoyl-3-[(4-fluorophenyl)amino]-1H-pyrazol-1-yl}-4-(cyanomethyl)piperidin-1-yl]pyridine-2-carboxylate], the IC50 on JAK1 was 19 nM; on JAK2, 280 nM.

Regarding `CN1CC(CC#N)(n2cc(C(N)=O)c(Nc3ccccc3)n2)C1` [Example 20, 1-[3-(Cyanomethyl)-1-methylazetidin-3-yl]-3-(phenylamino)-1H-pyrazole-4-carboxamide], the half-inhibitory concentration (IC50) was determined as 358 nM at JAK1 and 1480 nM against JAK2.

Consider `N#CCC1(n2cc(C(N)=O)c(Nc3ccc(F)cc3)n2)CCN(C(=O)OCC2CCC2)CC1` [Example 30-5, cyclobutylmethyl 4-(4-carbamoyl-3-(4-fluorophenylamino)-1H-pyrazol-1-yl)-4-(cyanomethyl)piperidine-1-carboxylate], for which the IC50 turned out to be 4 nM at JAK1 and 120 nM on JAK2.

Regarding `C[C@H](OC(=O)N1CCC(CC#N)(n2cc(C(N)=O)c(Nc3ccnc(F)c3)n2)CC1)C1CC1` [Example 30-77, (1S)-1-cyclopropylethyl 4-{4-carbamoyl-3-[(2-fluoropyridin-4-yl)amino]-1H-pyrazol-1-yl}-4-(cyanomethyl)piperidine-1-carboxylate], the values for the half-inhibitory concentration (IC50) on JAK1 and on JAK2 were 0.2 nM and 9 nM, respectively.

As for `CC(C)OC(=O)c1ccc(Nc2nn(C3(CC#N)CCN(C(=O)OC(C)(C)C)CC3)cc2C(N)=O)cc1` [Example 4-2, tert-butyl 4-[4-carbamoyl-3-({4-[(1-methylethoxy)carbonyl]phenyl}amino)-1H-pyrazol-1-yl]-4-(cyanomethyl)piperidine-1-carboxylate], the IC50 on JAK1 was 2 nM; on JAK2 it was 20 nM.

In the case of `N#CCC1(n2cc(C(N)=O)c(Nc3ccnc(F)c3)n2)CCN(CC2CCCCC2)CC1` [Example 22-3, 1-[4-(cyanomethyl)-1-(cyclohexylmethyl)piperidin-4-yl]-3-[(2-fluoropyridin-4-yl)amino]-1H-pyrazole-4-carboxamide], the IC50 on JAK1 is 1 nM; against JAK2, 57 nM.

Consider `N#CCC1(n2cc(C(N)=O)c(Nc3ccc(F)cc3)n2)CCN(C(=O)OCC2CC2)CC1` [Example 30-19, cyclopropylmethyl 4-{4-carbamoyl-3-[(4-fluorophenyl)amino]-1H-pyrazol-1-yl}-4-(cyanomethyl)piperidine-1-carboxylate], for which the half-inhibitory concentration (IC50) at JAK1 was determined as 1 nM; at JAK2 it was 37 nM.

Take `N#CCC1(n2cc(C(N)=O)c(Nc3ccccc3)n2)CN(C(=O)OCCN2CCOCC2)C1` [Example 30-55, 2-morpholin-4-ylethyl 3-[4-carbamoyl-3-(phenylamino)-1H-pyrazol-1-yl]-3-(cyanomethyl)azetidine-1-carboxylate]: the 50% inhibitory concentration (IC50) at JAK1 was 74 nM; at JAK2 it was 491 nM.

For `N#CCC1(n2cc(C(N)=O)c(Nc3ccnc(F)c3)n2)CCC(NCc2ccccc2F)CC1` (stereo not drawn) [Example 41-21, Cis or trans 1-{1-(cyanomethyl)-4-[(2-fluorobenzyl)amino]cyclohexyl}-3-[(2-fluoropyridin-4-yl)amino]-1H-pyrazole-4-carboxamide], the IC50 at JAK1 stood at 11 nM; against JAK2, 308 nM.

In the case of `N#CCC1(n2cc(C(N)=O)c(Nc3ccc(F)cc3)n2)CCN(Cc2ccon2)CC1` [Example 22-45, 1-[4-(cyanomethyl)-1-(isoxazol-3-ylmethyl)piperidin-4-yl]-3-[(4-fluorophenyl)amino]-1H-pyrazole-4-carboxamide], the IC50 was 2 nM on JAK1 and 34 nM against JAK2.

`N#CCC1(n2cc(C(N)=O)c(Nc3ccccc3)n2)CCN(C(=O)c2ccc3ccccc3n2)CC1` [Example 34-32, 1-[4-(cyanomethyl)-1-(quinolin-2-ylcarbonyl)piperidin-4-yl]-3-(phenylamino)-1H-pyrazole-4-carboxamide]: the 50% inhibitory concentration (IC50) on JAK1 amounted to 6 nM; on JAK2, 166 nM.

Turning to `N#CCC1(n2cc(C(N)=O)c(Nc3ccc(F)cc3)n2)CCN(c2ccc(C#N)cc2)CC1` [Example 3-26, 1-[4-(cyanomethyl)-1-(4-cyanophenyl)piperidin-4-yl]-3-[(4-fluorophenyl)amino]-1H-pyrazole-4-carboxamide], the IC50 worked out at 0.2 nM on JAK1 and 3 nM against JAK2.

Turning to `N#CCC1(n2cc(C(N)=O)c(Nc3ccnc(F)c3)n2)CCC(Nc2cc(F)ccc2F)CC1` (stereo not drawn) [Example 40-63, Cis or trans 1-{1-(cyanomethyl)-4-[(2,5-difluorophenyl)amino]cyclohexyl}-3-[(2-fluoropyridin-4-yl)amino]-1H-pyrazole-4-carboxamide], the 50% inhibitory concentration (IC50) at JAK1 turned out to be 0.03 nM; against JAK2 it was 1 nM.

On to `N#CCC1(n2cc(C(N)=O)c(Nc3ccccc3)n2)CCN(C(=O)OCc2ccccc2F)CC1` [Example 30-33, 2-fluorobenzyl 4-[4-carbamoyl-3-(phenylamino)-1H-pyrazol-1-yl]-4-(cyanomethyl)piperidine-1-carboxylate], for which the IC50 on JAK1 is 2 nM; against JAK2, 40 nM.

In the case of `CN(c1ccccc1)C1CCC(CC#N)(n2cc(C(N)=O)c(Nc3ccnc(F)c3)n2)CC1` (stereo not drawn) [Example 40-15, Cis or trans 1-{1-(cyanomethyl)-4-[methyl(phenyl)amino]cyclohexyl}-3-[(2-fluoropyridin-4-yl)amino]-1H-pyrazole-4-carboxamide], the half-maximal inhibitory concentration (IC50) at JAK1 came out at 0.08 nM; at JAK2, 2 nM.

As for `CS(=O)(=O)c1ccc(Nc2nn(C3(CC#N)CCN(C(=O)CC#N)CC3)cc2C(N)=O)cc1` [Example 36-2, 1-[1-(cyanoacetyl)-4-(cyanomethyl)piperidin-4-yl]-3-{[4-(methylsulfonyl)phenyl]amino}-1H-pyrazole-4-carboxamide], the IC50 on JAK1 turned out to be 0.6 nM; on JAK2, 10 nM.

With `COC1CN(C2CCC(CC#N)(n3cc(C(N)=O)c(Nc4ccc(F)cc4)n3)CC2)C1` (stereo not drawn) [Example 40-74, Cis or trans 1-[1-(cyanomethyl)-4-(3-methoxyazetidin-1-yl)cyclohexyl]-3-[(4-fluorophenyl)amino]-1H-pyrazole-4-carboxamide], the figures for the concentration for half-maximal inhibition (IC50) at JAK1 and at JAK2 were 1 nM and 35 nM, respectively.

Consider `CC(C(=O)N1CCC(CC#N)(n2cc(C(N)=O)c(Nc3ccnc(F)c3)n2)CC1)C(F)(F)F` (stereo not drawn) [Example 34-48, 1-[4-(cyanomethyl)-1-(3,3,3-trifluoro-2-methylpropanoyl)piperidin-4-yl]-3-[(2-fIuoropyridin-4-yl)amino]-1H-pyrazole-4-carboxamide], for which the IC50 was determined as 0.3 nM on JAK1 and 13 nM on JAK2.

With `N#CCC1(n2cc(C(N)=O)c(Nc3ccc(F)cc3)n2)CCN(Cc2ccc3cc[nH]c3c2)CC1` [Example 22-56, 1-[4-(cyanomethyl)-1-(1H-indol-6-ylmethyl)piperidin-4-yl]-3-[(4-fluorophenyl)amino]-1H-pyrazole-4-carboxamide], the figures for the IC50 at JAK1 and against JAK2 were 2 nM and 46 nM, respectively.
